From patent US4150139A, “Triazolobenzazepine derivatives” (Takeda Chemical Industries, Ltd., priority 1976, dated 1979)

System: mice
Assay: Analgesic Effect [mice, acetic acid-writhing method]
Assay type: in vivo
Settings: Mus musculus, po, P.O. (per os), 95% C.L. in parentheses
From the text: The analgesic effects of some representative compounds (I) are set forth below in Table I.
[mice, acetic acid-writhing method]

CSc1nnc2n1C=Cc1ccccc1C2 [(I')Z = SCH3, 3-methylthio-11H-s-triazolo[3,4-b][3]benzazepine]
ED50: 10.5 mg/kg

C[S+]([O-])c1nnc2n1C=Cc1ccccc1C2 (centres unmarked) [(I')Z = SOCH3, 3-methylsulfinyl-11H-s-triazolo[3,4-b][3]benzazepine]
ED50: 10.3 mg/kg
